From patent US8372971B2, “Heterocyclic compounds and methods of use” (TargeGen, Inc., priority 2004, dated 2013)
Where a name gives a salt, the structure may show the parent alone.

Legend:
[1] = molecular target: T1, raf1 with inactive MEK1 (Raf1-MEK1) (Homo sapiens, UniProt P04049); test: Raf1-MEK1 assay (KinaseGlo); type: biochemical; settings: for IC50: Raf-Mek, 3 uM ATP, read-out: RAF-MEK assay (biochemical assay)
T1 construct: purchased Upstate, Lake Placid, N.Y

[2] = test system: p-MEK and p-ERK levels in HUVECs; test: Western Blot, inhibition of MAPK pathway in cellular assay (Example 27); type: cell-based, human; settings: for Western Blot: at 5 uM, 50 ng/ml VEGF or FGF
Experimental: (§1) Western Blot: Early passage primary human umbilical vein endothelial cells (HUVECs) were maintained in EGM-2 containing SingleQuots (Cambrex, East Rutherford, N.J.), 10% FBS, 10 mM HEPES, and 50 μg/ml gentamicin. Prior to treatment of the cells with inhibitor, the HUVECs were starved for 18 h by replacing serum-containing complete media with scrum-free and SingleQuot-free media. The starved cells were pre-treated with inhibitors for 60 min at various concentrations (0-20 μM). Next the HUVECs were treated with 50 ng/ml VEGF or FGF (Peprotech, Rocky Hill, N.J.) for 6 min and the cells were immediately washed with ice-cold PBS. Cells were lysed with ice-cold RIPA buffer containing 100 mM Tris pH 7.5, 150 mM NaCl, 1 mM EDTA, 1% deoxycholate, 1% Triton X-100, 0.1% SDS, 2 mM PMSF, one Complete-Mini protease inhibitor tablet (Roche, Indianapolis, Ind.; 1 tablet/7 ml of lysis buffer) and the phophatase inhibitors NaF (500 mM) and orthovanadate (1 mM). The cells were scraped and lysates transferred and centrifuged at 15,000 g for 10 min. Supernatants were transferred to new tubes and protein concentration was quantitated using the BCA protein reagent (Pierce, Rockford, Ill.). Cell lysates containing 20 μg of total protein were separated by 10% SDS-PAGE, transferred to nitrocellulose, and blocked in 5% milk in TBST. Anti phospho-ERK Thr 202/Tyr 204 (Cell Signaling, Beverly, Mass.), anti-phospho-MEK Ser217/221 (Cell Signaling), and c-Raf (BD Biosciences Pharmingen, San Diego, Calif.) used as primary antibodies were detected with horseradish peroxidase-conjugated goat anti-mouse or rabbit secondary antibodies and bands were visualized using the SuperSignal West Pico chemiluminescence reagent system (Pierce) and Kodak X-ray film (Rochester, N.Y.).

recombinant human raf1 = molecular target: T2, recombinant human raf1 (Homo sapiens, UniProt P04049); test: Raf1 direct kinase assay (KinaseGlo); type: biochemical; settings: printed in the RAF-MEK column
T2 construct: purchased Upstate, Lake Placid, N.Y
T2 sequence (P04049 whole entry): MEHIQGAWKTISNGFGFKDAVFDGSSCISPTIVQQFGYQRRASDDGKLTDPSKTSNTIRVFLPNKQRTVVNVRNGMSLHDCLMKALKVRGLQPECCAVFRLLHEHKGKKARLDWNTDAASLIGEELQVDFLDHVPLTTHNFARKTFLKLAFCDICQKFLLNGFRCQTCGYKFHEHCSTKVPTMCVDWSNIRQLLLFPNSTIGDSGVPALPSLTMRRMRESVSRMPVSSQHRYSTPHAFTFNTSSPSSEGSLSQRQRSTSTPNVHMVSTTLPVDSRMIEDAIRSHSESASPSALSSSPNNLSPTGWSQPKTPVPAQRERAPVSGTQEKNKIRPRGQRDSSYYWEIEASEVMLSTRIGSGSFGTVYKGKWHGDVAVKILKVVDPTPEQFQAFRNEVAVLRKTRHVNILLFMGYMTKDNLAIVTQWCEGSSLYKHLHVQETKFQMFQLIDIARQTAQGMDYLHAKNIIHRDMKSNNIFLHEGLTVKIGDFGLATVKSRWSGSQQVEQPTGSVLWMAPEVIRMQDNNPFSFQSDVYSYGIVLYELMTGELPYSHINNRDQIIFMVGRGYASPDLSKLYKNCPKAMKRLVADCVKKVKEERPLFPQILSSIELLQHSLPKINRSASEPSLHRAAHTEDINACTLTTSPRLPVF
Experimental: The ability of compounds of general structure (A) of the present invention to inhibit the kinase activity of Raf1 was evaluated using two methods: a direct and a Raf1-MEK1 assay. In the direct assay, kinase reactions were conducted in 96-well plates by combining recombinant human raf1 (29.4 U/well, Upstate, Lake Placid, N.Y.), ATP (3 μM), myelin basic protein substrate (MBP, 1 mg/ml, Upstate, Lake Placid, N.Y.), and test agents (at concentrations ranging from about 1 nM/l to about 10 μM), in the presence of kinase reaction buffer. […] After reacting for 60 minutes at 30° C., residual ATP was measured using a luciferase-based assay (KinaseGlo, Promega Corp.) as a measure of kinase activity. Data from four wells were then averaged and used to determine IC50 values for the test compounds (Prism software package, GraphPad Software, San Diego Calif.).

HUVECs = test: XTT cell viability assay (Example 28); type: cell-based; settings: Homo sapiens, HUVEC, 24-48 hours, read-out: Inhibition of HUVEC cell prolifiration (IC50)
Experimental: XTT assay: HUVECs were seeded at 10,000 cells/well of a tissue culture treated 96-well plate treated with collagen type I and grown overnight in the complete EGM-2 media as described above. The following morning, the inhibitors were serial diluted with DMSO and added to the cells with a final DMSO concentration of 1%. After 24-48 hours cell viability was measured with an XTT assay (Sigma, St. Louis, Mo.). The cells were also photographed to compare morphological differences to the XTT trends observed. Determination of the IC50 values was performed with quantitative software (Prism software package, GraphPad Software, San Diego Calif.).

[3] = test system: p-MEK and p-ERK levels in HUVECs; test: Western Blot, inhibition of MAPK pathway in cellular assay (Example 105); type: cell-based, human; settings: VEGF or FGF
Experimental: as §1, with “Some compounds described by the general structure (B) were tested for inhibition of MAPK pathway in cellular assay. Western” for “Western”, “serum-free” for “scrum-free”, “main.” for “min.”

T1 sequence (P04049 306-648 limits assumed): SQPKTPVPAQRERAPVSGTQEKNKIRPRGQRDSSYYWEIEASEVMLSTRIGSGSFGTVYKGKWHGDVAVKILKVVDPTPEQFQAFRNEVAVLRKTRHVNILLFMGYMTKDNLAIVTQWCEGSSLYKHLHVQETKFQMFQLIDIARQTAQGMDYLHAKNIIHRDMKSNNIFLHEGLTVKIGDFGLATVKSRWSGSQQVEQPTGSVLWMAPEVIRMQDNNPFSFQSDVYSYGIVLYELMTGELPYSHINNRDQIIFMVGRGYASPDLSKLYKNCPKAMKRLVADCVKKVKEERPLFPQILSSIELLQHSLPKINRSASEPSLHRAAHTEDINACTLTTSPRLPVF

Structure (SMILES)	RAF-MEK assay (biochemical assay), result in words [1]	Western Blot [2]	IC50 [1] [nM]	further results
CNC(=O)c1cc(Oc2ccc3nc(NC(=O)c4cccc(Cl)c4)nnc3c2)ccn1 [trifluoroacetate salt]	flat	not active at 5 uM	–	–
CNC(=O)c1cc(Oc2ccc3nc(Nc4ccc(Cl)cc4)nnc3c2)ccn1 [4-[3-(4-chloro-phenylamino)-benzo[1,2,4]triazin-7-yloxy]-pyridine-2-carboxylic acid methylamide trifluoroacetate salt]	–	not active at 5 uM	10000 to 50000	IC50 (recombinant human raf1): 77 nM; window [1]: 100%
CNC(=O)c1cc(Oc2ccc3nc(Nc4ccc(Cl)c(C(F)(F)F)c4)nnc3c2)ccn1 [4-[3-(4-chloro-3-trifluoromethyl-phenylamino)-benzo[1,2,4]triazin-7-yloxy]-pyridine-2-carboxylic acid methylamide trifluoroacetate salt]	–	not active at 5 uM	11.6	window [1]: ~20%
CNC(=O)c1cc(Oc2ccc3nc(NC(=O)c4cc(C(F)(F)F)cc(Cl)c4F)nnc3c2)ccn1 [4-[2-fluoro-3-chloro-5-trifluoromethyl-benzoylamino)-benzo[1,2,4]triazin-7-yloxy]-pyridine-2-carboxylic acid methyl amide trifluoroacetate salt]	–	not active at 5 uM	723	window [1]: ~30%
CNC(=O)c1cc(Oc2ccc3nc(NC(=O)c4cccc(C(F)(F)F)c4)nnc3c2)ccn1 [4-[3-(3-trifluoromethyl-benzoylamino)-benzo[1,2,4]triazin-7-yloxy]-pyridine-2-carboxylic acid methyl amide trifluoroacetate salt]	–	not active at 5 uM	655	window [1]: ~70%
CNC(=O)c1cc(Oc2ccc3nc(NS(=O)(=O)c4ccccc4C(F)(F)F)nnc3c2)ccn1 [4-[2-(trifluoromethyl-benzenesulfonylamino)-benzo[1,2,4]triazin-7-yloxy]-pyridine-2-carboxylic acid methyl amide trifluoroacetate salt]	flat	not active at 5 uM	–	–
CNC(=O)c1cc(Oc2ccc3nc(NS(=O)(=O)c4ccc(Cl)s4)nnc3c2)ccn1 [4-[3-(5-chloro-thiophene-2-sulfonylamino)-benzo[1,2,4]triazin-7-yloxy]-pyridine-2-carboxylic acid methyl amide trifluoroacetate salt]	–	not active at 5 uM	> 50000	–
CNC(=O)c1cc(Oc2ccc3nc(NC(=O)c4ccc(Cl)c(C(F)(F)F)c4)nnc3c2)ccn1 [4-[3-(4-chloro-3-trifluoromethyl-benzoylamino)-benzo[1,2,4]triazin-7-yloxy]pyridine-2-carboxylic acid meth amide trifluoroacetate salt]	–	not active at 5 uM	10000 to 50000	–
O=C(Nc1nnc2cc(Oc3ccnc(C(=O)NCCN4CCOCC4)c3)ccc2n1)c1ccc(OC(F)(F)F)cc1 [4-[3-(4-Trifluoromethoxy-benzoylamino)-benzo[1,2,4]triazin-7-yloxy]-pyridine-2-carboxylic acid (2-morpholin-4-yl-ethyl)-amide]	–	active at 5 uM	–	IC50 (HUVECs): 1480 nM
CNC(=O)c1cc(Oc2ccc3nc(NS(=O)(=O)c4cc(Cl)ccc4OC)nnc3c2)ccn1 [4-[3-chloro-6-methoxy-benzenesulfonylamino)-benzo[1,2,4]triazin-7-yloxy]-pyridine-2-carboxylic acid methyl amide trifluoroacetate salt]	–	not active at 5 uM	> 50000	–
CNC(=O)c1cc(Oc2ccc3nc(NS(=O)(=O)c4cccc(C(F)(F)F)c4)nnc3c2)ccn1 [4-[3-(3-trifluoromethyl-benzenesulfonylamino)-benzo[1,2,4]triazin-7-yloxy]-pyridine-2-carboxylic acid methyl amide trifluoroacetate salt]	flat	not active at 5 uM	–	–
N#CC(=C(/N)Sc1ccccc1N)/C(C#N)=C(\N)Sc1ccccc1N [Example U0126, reference compound]	–	–	–	IC50 ([2]; Homo sapiens, HUVEC, VEGF or FGF, read-out: reduction in p-Erk levels, IC50): 200 to 300 nM; p-MEK levels ([2]; VEGF or FGF): unaffected; IC50 ([3]; Homo sapiens, HUVEC, read-out: reduction in p-Erk levels, IC50): 200 to 300 nM; p-MEK levels [3]: unaffected
CNC(=O)c1cc(Oc2ccc3nc(NC(=O)c4cc(C(F)(F)F)ccc4Cl)nnc3c2)ccn1 [4-[2-chloro-3-trifluoromethyl-benzoylamino)-benzo[1,2,4]triazin-7-yloxy]-pyridine-2-carboxylic acid methyl amide trifluoroacetate salt]	–	not active at 5 uM	–	–
CNC(=O)c1cc(Oc2ccc3nc(NC(=O)c4cccc(C(F)(F)F)c4Cl)nnc3c2)ccn1 [4-[3-(2-chloro-3-trifluoromethyl-benzoylamino)-benzo[1,2,4]triazin-7-yloxy]-pyridine-2-carboxylic acid methyl amide trifluoroacetate salt]	flat	not active at 5 uM	–	–
CNC(=O)c1cc(Oc2ccc3nc(NC(=O)c4ccc(Cl)cc4Cl)nnc3c2)ccn1 [4-[2,4-dichloro-benzoylamino)-benzo[1,2,4]triazin-7-yloxy]-pyridine-2-carboxylic acid methyl amide trifluoroacetate salt]	flat	not active at 5 uM	–	–
O=C(Nc1nnc2cc(Oc3ccncc3)ccc2n1)c1ccc(OC(F)(F)F)cc1 [N-[7-(Pyridin-4-yloxy)-benzo[1,2,4]triazin-3-yl]-4-trifluoromethoxy-benzamide]	–	not active at 5 uM	–	IC50 (HUVECs): 7380 nM
